{"source": "paper PMC4974614", "about": "“Human native kappa opioid receptor functions not predicted by recombinant receptors: Implications for drug design” (Scientific Reports, 2016)", "key": {"[1]": {"molecular_target": "T1, human κ receptor (Homo sapiens, UniProt P41145)", "T1 sequence (P41145 whole entry)": "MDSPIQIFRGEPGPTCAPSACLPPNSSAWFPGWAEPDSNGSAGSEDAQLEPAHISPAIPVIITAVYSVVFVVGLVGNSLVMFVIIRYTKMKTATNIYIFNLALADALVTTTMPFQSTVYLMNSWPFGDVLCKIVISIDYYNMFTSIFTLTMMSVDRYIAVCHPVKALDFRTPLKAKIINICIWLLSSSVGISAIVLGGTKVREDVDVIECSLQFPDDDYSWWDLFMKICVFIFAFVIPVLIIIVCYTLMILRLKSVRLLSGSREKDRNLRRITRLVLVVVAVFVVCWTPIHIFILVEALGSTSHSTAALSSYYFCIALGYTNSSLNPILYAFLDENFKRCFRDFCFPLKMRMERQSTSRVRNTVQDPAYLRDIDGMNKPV", "assay": "cell-based", "settings": "for Emax: HEK293, read-out: BRET Emax (%)"}, "[2]": {"molecular_target": "T2, mouse κ receptor (Mus musculus, UniProt P33534)", "T2 sequence (P33534 whole entry)": "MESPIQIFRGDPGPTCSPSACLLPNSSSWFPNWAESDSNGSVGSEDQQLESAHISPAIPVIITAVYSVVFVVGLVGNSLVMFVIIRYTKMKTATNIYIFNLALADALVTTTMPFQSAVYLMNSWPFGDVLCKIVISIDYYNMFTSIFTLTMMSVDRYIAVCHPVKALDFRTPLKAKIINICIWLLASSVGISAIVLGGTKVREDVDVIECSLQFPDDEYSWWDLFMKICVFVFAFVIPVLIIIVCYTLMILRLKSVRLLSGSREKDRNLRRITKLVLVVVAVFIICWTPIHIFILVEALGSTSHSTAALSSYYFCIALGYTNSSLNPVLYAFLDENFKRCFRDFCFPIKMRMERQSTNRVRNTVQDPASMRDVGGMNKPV", "assay": "cell-based", "settings": "HEK293, read-out: BRET Emax (%)"}, "[3]": {"molecular_target": "T1, human κ receptor", "assay": "cell-based", "settings": "for Emax: HEK293, read-out: TR-FRET Emax (%)"}, "[4]": {"molecular_target": "T2, mouse κ receptor", "assay": "cell-based", "settings": "HEK293, read-out: TR-FRET Emax (%)"}, "[5]": {"molecular_target": "T1, human κ receptor", "format": "cell-based"}, "[6]": {"molecular_target": "T2, mouse κ receptor", "format": "cell-based"}, "[7]": {"test_system": "mouse isolated colon", "assay": "EFS-evoked cholinergically-mediated contractions of mouse isolated colon", "format": "cell-based", "settings": "for Emax / EC50: Mus musculus; for Emax: read-out: Emax (%), inhibition of EFS-evoked after-contractions; for EC50: read-out: pEC50, inhibition of EFS-evoked after-contractions (converted)"}, "[8]": {"test_system": "mouse proximal colon", "assay": "Carbachol-induced contractions of mouse proximal colon", "format": "cell-based", "description": "Changes in muscle tension were recorded using isometric force transducers (AD Instruments, Chalgrove, UK) on a data acquisition system (Biopac Systems Inc., Goleta, CA, USA). The strips were given 1 g tension and allowed to recover for 30 min during which time the bath solutions were changed every 15 min; this initial tension was previously determined as the optimum required to maximally detect EFS-evoked responses in both regions (data not shown). Electrical Field Stimulation (EFS) was applied at 5 Hz using a maximally-effective voltage (80 V) and 0.5 ms bipolar pulse duration […], given for 30 s every 120 s, for at least 1 hour before drug addition. These parameters of EFS consistently evoked nerve-mediated responses with a good signal-to-noise ratio over spontaneous muscle activity. After obtaining consistent responses, drugs were applied non-cumulatively to separate tissues (20 min contact); changes in resting muscle tension and responses to EFS were measured. Finally, any effects of the drugs on carbachol-induced contractions were examined by first obtaining consistent responses to a submaximally-effective concentration of carbachol (1 μM; 27 ± 9% max, 5 min contact; n = 4). The compounds were then added 5 min before application of carbachol (1 μM, 5 min contact), followed by washing, and this process was repeated at least once more."}, "[9]": {"test_system": "human isolated colon", "assay": "EFS-evoked cholinergically-mediated contractions of human isolated colon", "format": "cell-based", "settings": "for inhibition at 1 µM: read-out: % inhibition of contractions evoked during EFS; for effect alone on responses to EFS: phentolamine 1 μM and propranolol 1 μM together, descending colon"}, "[10]": {"test_system": "human descending colon", "assay": "cells", "format": "cell-based"}, "[11]": {"test_system": "tetrodotoxin-sensitive Na+ channels", "settings": "read-out: EC50, block of tetrodotoxin-sensitive Na+ channels; cited from earlier work"}, "[12]": {"test_system": "μ-opioid receptors", "settings": "cited from earlier work"}, "[13]": {"test_system": "K+ channels in mouse epithelia", "settings": "read-out: IC50, block of K+ channels; cited from earlier work"}, "[14]": {"settings": "human, in vivo; cited from earlier work"}, "[15]": {"settings": "in vivo; cited from earlier work"}, "[16]": {"test_system": "human descending colon", "assay": "Carbachol-evoked contractions of human descending colon"}, "[17]": {"test_system": "mouse κ receptors in COS-1 cells", "settings": "read-out: IC50, radioligand binding; cited from earlier work"}, "[18]": {"molecular_target": "Recombinant human receptor", "settings": "cited from earlier work"}, "[19]": {"molecular_target": "Recombinant human receptor", "settings": "cited from earlier work", "remark": "listed apart in the source"}, "[20]": {"test_system": "human isolated colon", "settings": "cited from earlier work"}, "[21]": {"test_system": "κ receptor", "settings": "cited from earlier work"}}, "note": "Where “and” joins values, the source holds several entries; their conditions need not be identical. Equal entries are not always repeated. Structures can show the parent of a compound that is named as a salt. Where two headings read alike, the source gives them in different places."}
{"molecule": "CN(C(=O)C(c1ccccc1)c1ccccc1)[C@H](CN1CC[C@H](O)C1)c1ccccc1", "note": "[Asimadoline]", "values": [{"measurement": "EC50", "setting": "[1]; BRET pEC50", "value": 0.631, "unit": "nM"}, {"measurement": "Emax", "setting": "[1]", "value": "98 ± 5", "unit": "%"}, {"measurement": "Emax", "setting": "[2]", "value": "99 ± 4", "unit": "%"}, {"measurement": "EC50", "setting": "[3]", "value": 39.8, "unit": "nM"}, {"measurement": "Emax", "setting": "[3]", "value": "97 ± 2", "unit": "%"}, {"measurement": "Emax", "setting": "[4]", "value": "96 ± 3", "unit": "%"}, {"measurement": "BIAS", "setting": "[5]", "value": 0.60}, {"measurement": "BIAS", "setting": "[6]", "value": 0.65}, {"measurement": "reduction of contractions of the distal colon", "setting": "[7]", "value": "59 ± 13", "unit": "%"}, {"measurement": "time taken to achieve maximum activity", "setting": "[7]", "value": "17 ± 3", "unit": "min"}, {"measurement": "Emax", "setting": "[7]", "value": "52 ± 7", "unit": "%"}, {"measurement": "EC50", "setting": "[7]", "value": 7.94, "unit": "nM"}, {"measurement": "effect on contractions induced by carbachol 1 μM", "setting": "[8]", "value": "5 ± 7"}, {"measurement": "Time to max effect", "setting": "[9]", "value": "40 ± 4", "unit": "min"}, {"measurement": "effect on baseline muscle tension", "setting": "[9]", "value": "Neither asimadoline nor ICI204448 changed baseline muscle tension"}, {"measurement": "time to maximum inhibition", "setting": "[9]", "value": "30 ± 5", "unit": "min"}, {"measurement": "inhibition at 1 µM", "setting": "[9]; Homo sapiens", "value": "-29 ± 4", "unit": "%"}, {"measurement": "maximum inhibition of the response to ICI204448 60 nM", "setting": "[10]", "value": "19 ± 7", "unit": "%"}, {"measurement": "IC50", "setting": "[10]; Homo sapiens, read-out: pIC50, reduction of the response to ICI204448 60 nM (converted)", "value": 1.58, "unit": "nM"}, {"measurement": "EC50", "setting": "[11]", "value": 8400, "unit": "nM"}, {"measurement": "concentration activating μ-opioid receptors", "setting": "[12]", "value": 3, "unit": "µM"}, {"measurement": "IC50", "setting": "[13]", "value": 23700, "unit": "nM"}, {"measurement": "effect on colonic transit or postprandial motility", "setting": "[14]", "value": "not to affect colonic transit or postprandial motility"}, {"measurement": "effect on sensation or pain caused by colonic distension", "setting": "[15]", "value": "reduced the sensation or pain caused by colonic distension"}, {"measurement": "effect on contractions evoked by carbachol 1 μM", "setting": "[16]", "value": "−10 ± 9", "unit": "%"}]}
{"molecule": "CN(C(=O)Cc1ccc(Cl)c(Cl)c1)C(CN1CCCC1)c1cccc(OCC(=O)O)c1", "note": "(stereo not drawn) [ICI204448]", "values": [{"measurement": "Emax", "setting": "[1]", "value": "100 ± 3", "unit": "%"}, {"measurement": "Emax", "setting": "[2]", "value": "90 ± 4", "unit": "%"}, {"measurement": "Emax", "setting": "[3]", "value": "98 ± 2", "unit": "%"}, {"measurement": "Emax", "setting": "[4]", "value": "92 ± 4", "unit": "%"}, {"measurement": "Emax (%), inhibition of EFS-evoked after-contractions", "setting": "[7]", "value": "57 ± 7", "unit": "%"}, {"measurement": "reduction of contractions of the distal colon", "setting": "[7]", "value": "70 ± 5", "unit": "%"}, {"measurement": "time taken to achieve maximum activity", "setting": "[7]", "value": "7 ± 2", "unit": "min"}, {"measurement": "Emax", "setting": "[7]", "value": "49 ± 8", "unit": "%"}, {"measurement": "EC50", "setting": "[7]", "value": 3.16, "unit": "nM"}, {"measurement": "effect on contractions induced by carbachol 1 μM", "setting": "[8]; 1 μM, proximal colon", "value": "0 ± 5 % initial carbachol response"}, {"measurement": "Time to max effect", "setting": "[9]", "value": "13 ± 3", "unit": "min"}, {"measurement": "effect on baseline muscle tension", "setting": "[9]", "value": "Neither asimadoline nor ICI204448 changed baseline muscle tension"}, {"measurement": "effect on relaxations evoked by EFS", "setting": "[9]", "value": "1 ± 7 % change from baseline EFS"}, {"measurement": "pEC50, inhibition of contractions during EFS", "setting": "[9]", "value": "8.0 ± 0.4"}, {"measurement": "time to maximum inhibition", "setting": "[9]", "value": "7 ± 1", "unit": "min"}, {"measurement": "inhibition at 1 µM", "setting": "[9]; Homo sapiens", "value": "-57 ± 10", "unit": "%"}, {"measurement": "inhibition at 0.1 µM", "setting": "[9]; Homo sapiens, read-out: inhibition of EFS-evoked contractions", "value": "130 ± 29", "unit": "%"}, {"measurement": "IC50", "setting": "[17]", "value": 6.6, "unit": "nM"}, {"measurement": "G protein pEC50", "setting": "[18]", "value": "8.38 ± 0.09"}, {"measurement": "Arrestin pEC50", "setting": "[19]", "value": "8.48 ± 0.06"}, {"measurement": "biased activity towards the human κ receptor arrestin pathway", "setting": "[19]", "value": "only weak propensity for biased activity"}, {"measurement": "effect on contractions evoked by carbachol 1 μM", "setting": "[16]; 100 nM, descending colon, no EFS", "value": "−9 ± 2", "unit": "%"}]}
{"molecule": "COC(=O)[C@@H](N)CCCNC(N)=N[N+](=O)[O-]", "note": "[L-NAME, Nω-nitro-L-arginine methyl ester hydrochloride]", "values": [{"measurement": "effect on EFS-evoked relaxations", "setting": "[7]; 300 μM, proximal and distal colon", "value": "abolished"}, {"measurement": "effect on relaxations during EFS", "setting": "[9]; 300 μM, ascending and descending colon", "value": "prevented"}]}
{"molecule": "CN1[C@@H]2CC[C@H]1C[C@@H](OC(=O)C(CO)c1ccccc1)C2", "note": "(stereo partly drawn) [atropine]", "values": [{"measurement": "increase of EFS-evoked relaxations", "setting": "[7]", "value": "61 ± 13", "unit": "%"}, {"measurement": "reduction of after-contractions", "setting": "[7]", "value": "81 ± 5", "unit": "%"}, {"measurement": "effect on contractions during EFS", "setting": "[9]", "value": "prevented"}, {"measurement": "attenuation of after-contractions", "setting": "[20]", "value": "56 ± 12", "unit": "%"}]}
{"molecule": "C[N+](C)(C)CCOC(N)=O", "note": "[carbachol]", "values": [{"measurement": "contraction as % max", "setting": "[8]; 1 μM, 5 min contact", "value": "27 ± 9", "unit": "% max"}, {"measurement": "contraction as % of maximum contraction to carbachol", "setting": "[16]; 1 μM, 5 min contact", "value": "~ 50%"}]}
{"molecule": "CC[C@](COCc1cc(OC)c(OC)c(OC)c1)(c1ccccc1)N(C)C", "note": "[fedotozine]", "values": [{"measurement": "selectivity for the κ receptor over other opioid receptors", "setting": "[21]", "value": "~2", "unit": "fold"}]}
{"molecule": "Oc1ccc2c3c1O[C@H]1c4[nH]c5c(c4C[C@@]4(O)[C@@H](C2)N(CC2CC2)CC[C@]314)C[C@@]1(O)[C@H]2Cc3ccc(O)c4c3[C@@]1(CCN2CC1CC1)[C@H]5O4", "note": "[nor-binaltorphamine]", "values": [{"measurement": "effect by itself on the response to EFS", "setting": "[7]", "value": "did not by itself change the response to EFS"}, {"measurement": "effect on inhibition by ICI204448 and asimadoline", "setting": "[7]", "value": "antagonised"}, {"measurement": "effect by itself on contractions to EFS", "setting": "[9]", "value": "by itself did not affect contractions to EFS"}, {"measurement": "intercept of Schild analysis", "setting": "[9]", "value": "−9.7"}, {"measurement": "slope of Schild analysis", "setting": "[9]", "value": "0.53 ± 0.11"}]}
{"molecule": "Cc1ccc(N(CC2=NCCN2)c2cccc(O)c2)cc1", "note": "[phentolamine]", "values": [{"measurement": "effect alone on responses to EFS", "setting": "[9]", "value": "2 ± 3 % change from baseline EFS"}]}
{"molecule": "CC(C)NCC(O)COc1cccc2ccccc12", "note": "(stereo not drawn) [propranolol]", "values": [{"measurement": "effect alone on responses to EFS", "setting": "[9]", "value": "2 ± 3 % change from baseline EFS"}]}
{"molecule": "NC1=N[C@H](O)[C@H]2[C@H]3O[C@]4(O)O[C@@H]([C@@H](O)[C@@]2(N1)[C@@H]4O)[C@]3(O)CO", "note": "[tetrodotoxin]", "values": [{"measurement": "effect on EFS-evoked responses (relaxation, after-contraction)", "setting": "[7]", "value": "prevented"}, {"measurement": "effect on responses evoked by EFS", "setting": "[9]", "value": "prevented"}]}
{"molecule": "Dynorphin 1-13", "values": [{"measurement": "% inhibition of contractions evoked during EFS", "setting": "[9]", "value": "-30% and -35%"}, {"measurement": "Time to max effect", "setting": "[9]", "value": "17 min and 11 min"}, {"measurement": "G protein pEC50", "setting": "[18]", "value": "8.68 ± 0.07"}, {"measurement": "Arrestin pEC50", "setting": "[19]", "value": "7.01 ± 0.07"}]}
